Our source for the DC50 and IC50 values is patent publication US20230117034A1, “PYRAZOLOTRIAZINES” (Bayer Aktiengesellschaft, priority 2019, published 2023).

Molecules are shown by their SMILES.

Experiment [1] addresses T1, CYCLIN K (nuclear staining in CAL-120 cells) (Homo sapiens, UniProt O75909).
T1 construct: endogenous in cells; host or cells: CAL-120 human breast cancer cells (DSMZ ACC 459)
The experiment can be described thus: CYCLIN K nuclear protein level: immunofluorescence high content analysis (CAL-120). As to conditions: 24 h, 50% reduction of nuclear CCNK staining intensity, median, read-out: CYCLIN K degradation IF, DC50-[mol/l] (median). The class given is cell-based. In a few lines: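 CAL-120 breast cancer cells treated in dose-response for 24 h at 37 °C, PFA-fixed and immunostained for cyclin K with Hoechst counterstain. Confocal imaging quantified nuclear intensity; DC50 is the concentration giving 50% reduction of nuclear CCNK staining, normalized to DMSO and control.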

The target in another experiment is T2, CDK9/CycT1 (Homo sapiens, UniProt P50750).
T2 construct: Recombinant full-length His-tagged human CDK9 and CycT1; purchased Life Technologies PV4131; host or cells: insect cells
T2 sequence (P50750 whole entry): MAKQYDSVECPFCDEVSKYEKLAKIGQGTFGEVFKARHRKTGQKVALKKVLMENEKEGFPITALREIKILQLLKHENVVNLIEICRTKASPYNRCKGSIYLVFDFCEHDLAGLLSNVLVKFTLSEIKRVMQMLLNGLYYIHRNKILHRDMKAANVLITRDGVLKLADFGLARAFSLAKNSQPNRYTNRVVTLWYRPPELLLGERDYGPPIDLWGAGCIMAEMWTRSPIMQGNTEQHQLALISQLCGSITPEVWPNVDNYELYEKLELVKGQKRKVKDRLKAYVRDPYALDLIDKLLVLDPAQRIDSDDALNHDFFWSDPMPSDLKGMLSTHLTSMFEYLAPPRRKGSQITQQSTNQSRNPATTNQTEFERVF
T2 sequence (O60563 whole entry partner): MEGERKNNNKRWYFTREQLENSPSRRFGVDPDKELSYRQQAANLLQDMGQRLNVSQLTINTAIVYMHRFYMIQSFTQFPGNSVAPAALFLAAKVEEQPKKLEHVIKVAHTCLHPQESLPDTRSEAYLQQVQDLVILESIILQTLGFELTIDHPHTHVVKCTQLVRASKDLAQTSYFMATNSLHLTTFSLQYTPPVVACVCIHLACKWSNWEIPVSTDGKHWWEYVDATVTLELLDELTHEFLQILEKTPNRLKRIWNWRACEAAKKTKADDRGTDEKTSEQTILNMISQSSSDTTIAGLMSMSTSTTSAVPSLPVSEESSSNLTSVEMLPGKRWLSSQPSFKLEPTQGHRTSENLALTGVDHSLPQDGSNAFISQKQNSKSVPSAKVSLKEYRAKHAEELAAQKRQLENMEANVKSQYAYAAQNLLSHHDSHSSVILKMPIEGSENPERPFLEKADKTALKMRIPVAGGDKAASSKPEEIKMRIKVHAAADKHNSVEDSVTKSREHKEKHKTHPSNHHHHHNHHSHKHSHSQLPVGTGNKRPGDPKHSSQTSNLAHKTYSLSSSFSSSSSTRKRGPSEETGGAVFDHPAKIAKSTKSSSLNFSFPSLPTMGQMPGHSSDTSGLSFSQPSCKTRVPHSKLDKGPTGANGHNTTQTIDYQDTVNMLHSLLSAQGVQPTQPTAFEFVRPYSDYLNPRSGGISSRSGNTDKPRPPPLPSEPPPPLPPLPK
The experiment can be described thus: CDK9/CycT1 high ATP kinase assay (TR-FRET, 2 mM ATP). Format: biochemical. The note with it: 2 mM ATP (high ATP); median; read-out: CDK9/CyclinT1, 2 mM ATP (high ATP), IC50 (median). In a few lines:
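Full-length His-tagged human CDK9/CycT1 (insect cell, ~0.5 μg/mL) preincubated 15 min at 22 °C with compound in Tris pH 8.0, MgCl2, DTT buffer before reaction with biotinylated peptide substrate at high ATP (2 mM).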
(In TR-FRET formats the signal depends on donor and acceptor labels being close together.)

T1 sequence (O75909 whole entry): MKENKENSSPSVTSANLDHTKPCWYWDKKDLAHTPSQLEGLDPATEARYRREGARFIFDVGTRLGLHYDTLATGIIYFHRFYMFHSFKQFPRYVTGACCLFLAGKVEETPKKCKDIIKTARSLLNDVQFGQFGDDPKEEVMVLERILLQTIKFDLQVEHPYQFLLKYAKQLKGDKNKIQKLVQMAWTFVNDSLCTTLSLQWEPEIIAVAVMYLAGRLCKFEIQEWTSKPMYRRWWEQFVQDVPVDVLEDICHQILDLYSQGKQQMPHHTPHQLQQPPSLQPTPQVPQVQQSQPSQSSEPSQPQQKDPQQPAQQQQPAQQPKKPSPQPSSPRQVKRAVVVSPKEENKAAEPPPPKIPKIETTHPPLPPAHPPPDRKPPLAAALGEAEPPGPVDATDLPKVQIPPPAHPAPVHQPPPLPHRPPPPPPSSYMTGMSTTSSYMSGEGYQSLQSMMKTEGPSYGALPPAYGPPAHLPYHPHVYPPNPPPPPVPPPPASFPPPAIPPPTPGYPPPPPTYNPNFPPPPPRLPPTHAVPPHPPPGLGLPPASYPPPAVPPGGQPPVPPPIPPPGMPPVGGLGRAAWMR
T1 sequence (Q9NYV4 whole entry partner): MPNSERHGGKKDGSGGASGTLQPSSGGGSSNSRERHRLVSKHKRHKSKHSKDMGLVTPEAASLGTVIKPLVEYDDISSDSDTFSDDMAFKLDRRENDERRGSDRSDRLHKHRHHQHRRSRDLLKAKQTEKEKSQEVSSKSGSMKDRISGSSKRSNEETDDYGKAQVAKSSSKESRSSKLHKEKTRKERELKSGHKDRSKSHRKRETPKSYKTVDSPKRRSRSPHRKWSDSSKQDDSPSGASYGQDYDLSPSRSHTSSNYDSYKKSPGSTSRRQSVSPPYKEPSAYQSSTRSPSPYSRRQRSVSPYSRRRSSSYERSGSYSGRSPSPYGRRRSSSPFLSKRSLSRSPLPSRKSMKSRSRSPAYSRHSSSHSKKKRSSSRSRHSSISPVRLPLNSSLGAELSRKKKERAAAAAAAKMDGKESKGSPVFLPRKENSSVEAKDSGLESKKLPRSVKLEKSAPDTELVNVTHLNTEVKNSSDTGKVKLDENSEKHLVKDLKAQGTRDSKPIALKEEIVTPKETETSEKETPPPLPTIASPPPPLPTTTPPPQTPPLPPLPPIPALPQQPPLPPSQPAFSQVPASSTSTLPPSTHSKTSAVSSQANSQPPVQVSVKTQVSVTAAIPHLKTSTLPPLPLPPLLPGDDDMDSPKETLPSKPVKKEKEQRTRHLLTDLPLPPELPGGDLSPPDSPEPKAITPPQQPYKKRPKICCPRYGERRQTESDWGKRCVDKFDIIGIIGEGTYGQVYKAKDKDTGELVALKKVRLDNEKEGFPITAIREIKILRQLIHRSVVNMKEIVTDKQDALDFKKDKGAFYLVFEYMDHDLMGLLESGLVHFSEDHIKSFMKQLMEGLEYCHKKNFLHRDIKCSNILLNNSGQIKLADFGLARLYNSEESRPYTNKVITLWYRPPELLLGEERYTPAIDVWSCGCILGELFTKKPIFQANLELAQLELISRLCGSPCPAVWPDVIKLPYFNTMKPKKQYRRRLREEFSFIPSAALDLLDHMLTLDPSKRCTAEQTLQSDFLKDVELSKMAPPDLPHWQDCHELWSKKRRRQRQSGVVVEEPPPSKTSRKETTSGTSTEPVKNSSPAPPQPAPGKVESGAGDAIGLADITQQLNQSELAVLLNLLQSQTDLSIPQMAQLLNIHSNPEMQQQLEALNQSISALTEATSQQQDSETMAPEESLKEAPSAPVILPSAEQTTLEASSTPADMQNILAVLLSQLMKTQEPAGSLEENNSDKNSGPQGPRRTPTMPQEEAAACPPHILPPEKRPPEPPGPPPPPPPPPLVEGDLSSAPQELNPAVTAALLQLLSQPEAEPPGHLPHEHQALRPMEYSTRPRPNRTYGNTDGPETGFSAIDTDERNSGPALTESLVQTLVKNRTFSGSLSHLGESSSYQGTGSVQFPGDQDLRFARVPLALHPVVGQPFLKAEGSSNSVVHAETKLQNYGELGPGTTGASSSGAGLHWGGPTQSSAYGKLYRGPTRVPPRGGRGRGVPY

On to `CC1(N)CCN(c2nc(NCc3nc4ccccc4[nH]3)n3ncc(Br)c3n2)CC1` [Example 290, 2-(4-amino-4-methylpiperidin-1-yl)-N-[(1H-benzimidazol-2-yl)methyl]-8-bromopyrazolo[1,5-a][1,3,5]triazin-4-amine], for which the DC50 in experiment [1] was 0.00858 µM. The IC50 at CDK9/CycT1 is > 20 µM.

With `Fc1ccc2[nH]c(CNc3nc(N4CCOCC4)nc4c([C@@H]5CC5(F)F)cnn34)nc2c1` (single isomer, unassigned) [Example 315, 8-[(1R or S)-2,2-difluorocyclopropyl]-N-[(5-fluoro-1H-benzimidazol-2-yl)methyl]-2-(morpholin-4-yl)pyrazolo[1,5-a][1,3,5]triazin-4-amine], the DC50 in experiment [1] turned out to be 0.00215 µM. Besides, the IC50 at CDK9/CycT1 is > 20 µM.

As for `Fc1ccc2[nH]c(CNc3nc(N4CCOCC4)nc4c(C5CC5(F)F)cnn34)nc2c1` (racemic) [Example 286, 8-[(1RS)-2,2-difluorocyclopropyl]-N-[(5-fluoro-1H-benzimidazol-2-yl)methyl]-2-(morpholin-4-yl)pyrazolo[1,5-a][1,3,5]triazin-4-amine], in experiment [1], the DC50 is 0.00189 µM. Moreover, the IC50 at CDK9/CycT1 is > 20 µM.

With `NC12CC1CN(c1nc(NCc3nc4ccccc4[nH]3)n3ncc(Br)c3n1)C2` (centres unmarked) [Example 258, 2-(1-amino-3-azabicyclo[3.1.0]hexan-3-yl)-N-(1H-benzimidazol-2-ylmethyl)-8-bromo-pyrazolo[1,5-a][1,3,5]triazin-4-amine], the IC50 on CDK9/CycT1 was > 20 µM.

For the molecule `Fc1ccc2[nH]c(CNc3nc(N4CC5CCC(C4)N5)nc4c(C(F)(F)F)cnn34)nc2c1F` [Example 310, 2-(3,8-diazabicyclo[3.2.1]octan-3-yl)-N-[(4,5-difluoro-1H-benzimidazol-2-yl)methyl]-8-(trifluoromethyl)pyrazolo[1,5-a][1,3,5]triazin-4-amine], the DC50 in experiment [1] was 0.00029 µM. Also, the IC50 at CDK9/CycT1 turned out to be 8.49 µM.

As to `Clc1cc2nc(CNc3nc(N4CCOCC4)nc4c(C5CC5)cnn34)[nH]c2cc1Cl` [Example 301, 8-cyclopropyl-N-[(5,6-dichloro-1H-benzimidazol-2-yl)methyl]-2-(morpholin-4-yl)pyrazolo[1,5-a][1,3,5]triazin-4-amine], the DC50 in experiment [1] stood at 0.00059 µM. Also, the IC50 at CDK9/CycT1 is > 20 µM.

With `Fc1ccc2[nH]c(CNc3nc(N4CCOCC4)nc4c(C5CC5(F)F)cnn34)nc2c1` (single isomer, unassigned) [Example 314, 8-[(1R or S)-2,2-difluorocyclopropyl]-N-[(5-fluoro-1H-benzimidazol-2-yl)methyl]-2-(morpholin-4-yl)pyrazolo[1,5-a][1,3,5]triazin-4-amine], in experiment [1], the DC50 stood at 0.00111 µM. On CDK9/CycT1, the IC50 is > 20 µM.

As to `Fc1cccc2[nH]c(CNc3nc(N4CCOCC4)nc4c(C(F)(F)F)cnn34)nc12` [Example 274, N-[(4-fluoro-1H-benzimidazol-2-yl)methyl]-2-(morpholin-4-yl)-8-(trifluoromethyl)pyrazolo[1,5-a][1,3,5]triazin-4-amine], in experiment [1], the DC50 stood at 0.00321 µM. Further, the IC50 at CDK9/CycT1 is > 20 µM.

Take `OCC1CN(c2nc(NCc3nc4ccccc4[nH]3)n3ncc(Br)c3n2)C1` [Example 304, [1-(4-{[(1H-benzimidazol-2-yl)methyl]amino}-8-bromopyrazolo[1,5-a][1,3,5]triazin-2-yl)azetidin-3-yl]methanol]: the DC50 in experiment [1] is 0.0124 µM. Also, the IC50 on CDK9/CycT1 is > 20 µM.

On to `Brc1cnn2c(NCc3nc4ccccc4[nH]3)nc(N3C[C@H]4CC[C@@H]3CN4)nc12` (single isomer, unassigned) [Example 316, N-[(1H-benzimidazol-2-yl)methyl]-8-bromo-2-{[1R or S-(1R*4R*)]-2,5-diazabicyclo[2.2.2]octan-2-yl}pyrazolo[1,5-a][1,3,5]triazin-4-amine], for which, at CDK9/CycT1, the IC50 was 12.9 µM.

For `Fc1ccc2[nH]c(CNc3nc(N4CCOCC4)nc4c(C5CC5(F)F)cnn34)nc2c1F` (centres unmarked) [Example 278, N-[(4,5-difluoro-1H-benzimidazol-2-yl)methyl]-8-(2,2-difluorocyclopropyl)-2-(morpholin-4-yl)pyrazolo[1,5-a][1,3,5]triazin-4-amine], the DC50 in experiment [1] worked out at 0.000728 µM. The IC50 on CDK9/CycT1 was > 20 µM.

Regarding `CCNC1CCN(c2nc(NCc3nc4ccccc4[nH]3)n3ncc(Br)c3n2)CC1` [Example 300], in experiment [1], the DC50 came to 0.00103 µM. For the same molecule, the IC50 on CDK9/CycT1 was > 20 µM.

Take `Fc1ccc2[nH]c(CNc3nc(N4CCOCC4)nc4c(CC(F)(F)F)cnn34)nc2c1F` [Example 268, N-[(4,5-difluoro-1H-benzimidazol-2-yl)methyl]-2-(morpholin-4-yl)-8-(2,2,2-trifluoroethyl)pyrazolo[1,5-a][1,3,5]triazin-4-amine]: the DC50 in experiment [1] turned out to be 0.000756 µM. In addition, the IC50 on CDK9/CycT1 was > 20 µM.

In the case of `CN1CCN(c2nc(NCc3nc4cc(Cl)ccc4[nH]3)n3ncc(C(F)(F)F)c3n2)CC1` [Example 298, N-[(5-chloro-1H-benzimidazol-2-yl)methyl]-2-(4-methylpiperazin-1-yl)-8-(trifluoromethyl)pyrazolo[1,5-a][1,3,5]triazin-4-amine], in experiment [1], the DC50 is 0.00144 µM. Also, the IC50 at CDK9/CycT1 is > 20 µM.

Regarding `Fc1ccc2[nH]c(CNc3nc(N4CCOCC4)nc4c(C5CCOCC5)cnn34)nc2c1F` [Example 276, N-[(4,5-difluoro-1H-benzimidazol-2-yl)methyl]-2-(morpholin-4-yl)-8-(oxan-4-yl)pyrazolo[1,5-a][1,3,5]triazin-4-amine], the IC50 on CDK9/CycT1 is > 20 µM.

As for `CN(CC1CC1)c1nc(NCc2nc3ccccc3[nH]2)n2ncc(Br)c2n1` [Example 287, N^4-[(1H-benzimidazol-2-yl)methyl]-8-bromo-N^2-(cyclopropylmethyl)-N^2-methylpyrazolo[1,5-a][1,3,5]triazine-2,4-diamine], the IC50 on CDK9/CycT1 is > 20 µM.

As for `COc1cccc2[nH]c(CNc3nc(N4CCOCC4)nc4c(CC(F)(F)F)cnn34)nc12` [Example 277, N-[(4-methoxy-1H-benzimidazol-2-yl)methyl]-2-(morpholin-4-yl)-8-(2,2,2-trifluoroethyl)pyrazolo[1,5-a][1,3,5]triazin-4-amine], the IC50 on CDK9/CycT1 was > 20 µM.

As for `Brc1cnn2c(NCc3nc4cccnc4[nH]3)nc(N3CCNCC3)nc12.O=CO` [Example 19, 8-bromo-N-[(3H-imidazo[4,5-b]pyridin-2-yl)methyl]-2-(piperazin-1-yl)pyrazolo[1,5-a][1,3,5]triazin-4-amine formic acid salt], the IC50 at CDK9/CycT1 was > 20 µM.

`CN1CCN(c2nc(NCc3nc4ccccc4[nH]3)n3ncc(Br)c3n2)C(CO)C1` (single isomer, unassigned) [Example 280, [(2R or S)-1-(4-{[(1H-benzimidazol-2-yl)methyl]amino}-8-bromopyrazolo[1,5-a][1,3,5]triazin-2-yl)-4-methylpiperazin-2-yl]methanol]: the IC50 on CDK9/CycT1 was > 20 µM.

`N[C@H]1CN(c2nc(NCc3nc4ccccc4[nH]3)n3ncc(Br)c3n2)CC12CC2` [Example 259, 2-[(7R)-7-amino-5-azaspiro[2.4]heptan-5-yl]-N-[(1H-benzimidazol-2-yl)methyl]-8-bromopyrazolo[1,5-a][1,3,5]triazin-4-amine]: on CDK9/CycT1, the IC50 was 7.37 µM.

In the case of `Brc1cnn2c(NCc3nc4ccccc4[nH]3)nc(N3C[C@H]4CN[C@H]4C3)nc12.O=C(O)C(F)(F)F` [Example 255, trifluoroacetic acid-N-[(1H-benzimidazol-2-yl)methyl]-8-bromo-2-[(1R,5R)-3,6-diazabicyclo[3.2.0]heptan-3-yl]pyrazolo[1,5-a][1,3,5]triazin-4-amine (1/1)], on CDK9/CycT1, the IC50 is > 20 µM.

As to `CC1(O)CCN(c2nc(NCc3nc4ccccc4[nH]3)n3ncc(Br)c3n2)C1` (single isomer, unassigned) [Example 282, (3R or S)-1-(4-{[(1H-benzimidazol-2-yl)methyl]amino}-8-bromopyrazolo[1,5-a][1,3,5]triazin-2-yl)-3-methylpyrrolidin-3-ol], the IC50 at CDK9/CycT1 was > 20 µM.

Regarding `c1ccc2[nH]c(CNc3nc(N4C[C@@H]5CCCN[C@@H]5C4)nc4c(C5CC5)cnn34)nc2c1` [Example 249, N-[(1H-benzimidazol-2-yl)methyl]-8-cyclopropyl-2-[(4aS,7aS)-octahydro-6H-pyrrolo[3,4-b]pyridin-6-yl]pyrazolo[1,5-a][1,3,5]triazin-4-amine], at CDK9/CycT1, the IC50 is > 20 µM.

With `Brc1cnn2c(NCc3nc4ccccc4[nH]3)nc(N3C[C@@H]4CN[C@@H]4C3)nc12.O=C(O)C(F)(F)F` [Example 267, trifluoroacetic acid-N-[(1H-benzimidazol-2-yl)methyl]-8-bromo-2-[(1S,5S)-3,6-diazabicyclo[3.2.0]heptan-3-yl]pyrazolo[1,5-a][1,3,5]triazin-4-amine (1/1)], the IC50 on CDK9/CycT1 was > 20 µM.

In the case of `Brc1cnn2c(NCc3nc4ccccc4[nH]3)nc(NCC3CC3)nc12` [Example 284, N^4-[(1H-benzimidazol-2-yl)methyl]-8-bromo-N^2-(cyclopropylmethyl)pyrazolo[1,5-a][1,3,5]triazine-2,4-diamine], on CDK9/CycT1, the IC50 was > 20 µM.

As to `NC1(C(F)(F)F)CCN(c2nc(NCc3nc4ccccc4[nH]3)n3ncc(Br)c3n2)C1` (centres unmarked) [Example 266, 2-[3-amino-3-(trifluoromethyl)pyrrolidin-1-yl]-N-(1H-benzimidazol-2-ylmethyl)-8-bromo-pyrazolo[1,5-a][1,3,5]triazin-4-amine], the IC50 on CDK9/CycT1 was > 20 µM.
